Like-named read-outs stand apart in the source and are kept apart here.
System: Clostridium perfringens strain 56
Type: in vivo, Male Ross 308 broilers
Settings: for Mean score (NE): 0-6 score

CC1(C)S[C@@H]2[C@H](NC(=O)[C@H](N)c3ccc(O)cc3)C(=O)N2[C@H]1C(=O)O [Amoxicillin]
% NE (birds positive to macroscopic necrotic enteritis lesions) (Day 25, lesion score 2, infected day 19-22): 44%
% NE (birds positive to macroscopic necrotic enteritis lesions) (Day 25 and 26 combined): 29%
Mean score (NE) (Day 25 and 26 combined): 1.315
Mean score (NE) (Day 26): 1.07
% NE (birds positive to macroscopic necrotic enteritis lesions) (Day 26, lesion score 2, infected day 19-22): 14%
